Patent publication US20050069532A1, “Treatment of bacterial infection with elastase” (priority 2002, published 2005)
Residues, ends and D or L forms follow the SMILES beside them. *: point of attachment. MeOSuc = COC(=O)CCC(=O)*; CH2Cl = ClC*

Columns and labels:
[1] = test system: neutrophils; test: Cytotoxicity of inhibitor by lactate dehydrogenase (LDH) release
[2] = test system: human neutrophils infected with wild type Shigella; type: cell-based; settings: 20 μM, 10 bacteria/neutrophil
[3] = test system: human neutrophils infected with Shigella; settings: 20 μM, LDH release after 2 h incubation
[4] = test system: neutrophils; settings: cited from earlier work
[5] = test system: human neutrophils infected with Shigella; type: cell-based; settings: 20 μM
[6] = target: T1, Neutrophil elastase (Homo sapiens, UniProt P08246); test: Neutrophil elastase enzymatic assay in hNEGP (N-methoxysuccinyl-Ala-Ala-Pro-Val-p-nitroanilide substrate); settings: hNEGP pretreated with inhibitor (PMSF 1 mM, rm temp 20 min)
T1 sequence (P08246 30-267): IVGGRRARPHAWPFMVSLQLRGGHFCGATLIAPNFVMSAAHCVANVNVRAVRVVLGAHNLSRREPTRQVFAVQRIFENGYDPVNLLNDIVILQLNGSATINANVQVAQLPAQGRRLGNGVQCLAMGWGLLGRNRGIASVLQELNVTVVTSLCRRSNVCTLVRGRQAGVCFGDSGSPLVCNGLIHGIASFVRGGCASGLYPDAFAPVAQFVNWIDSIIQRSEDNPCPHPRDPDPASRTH
Description: Neutrophil elastase activity of intact neutrophils was determined as previously described (Huang et al., “Effect of Trifluoromethyl Ketone-Based Elastase Inhibitors on Neutrophil Function in Vitro,” J Leukoc Biol 64:322-330 (1998), which is hereby incorporated by reference).

[7] = target: neutrophil elastase in hNEGP (Homo sapiens, UniProt P08246); type: biochemical
[8] = test system: Shigella virulence proteins (IpaA, IpaB, IpaC, IcsA); type: biochemical, Shigella flexneri
[9] = test system: Secreted proteins from wild type Salmonella typhimurium (strain SL1344); type: biochemical
[10] = test system: InvG
Chain of InvG (P35672 25-562): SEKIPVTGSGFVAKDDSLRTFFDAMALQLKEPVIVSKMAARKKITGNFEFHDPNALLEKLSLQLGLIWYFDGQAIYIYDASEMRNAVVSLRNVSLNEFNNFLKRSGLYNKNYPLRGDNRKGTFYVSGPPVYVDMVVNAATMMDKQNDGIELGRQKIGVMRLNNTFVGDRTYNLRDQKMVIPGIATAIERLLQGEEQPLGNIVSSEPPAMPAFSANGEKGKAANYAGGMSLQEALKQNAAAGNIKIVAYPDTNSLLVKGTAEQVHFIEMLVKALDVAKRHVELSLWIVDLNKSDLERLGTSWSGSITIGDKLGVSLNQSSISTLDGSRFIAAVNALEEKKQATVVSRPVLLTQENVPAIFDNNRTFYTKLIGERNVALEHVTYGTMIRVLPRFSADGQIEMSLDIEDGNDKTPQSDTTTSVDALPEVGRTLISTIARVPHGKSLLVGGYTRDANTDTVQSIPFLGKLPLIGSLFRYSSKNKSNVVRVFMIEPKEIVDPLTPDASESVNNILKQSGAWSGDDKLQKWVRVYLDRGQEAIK

[11] = test system: OmpA of nonpathogenic Escherichia coli; settings: 4 h with 106 bacteria; cited from earlier work
Chain of OmpA of nonpathogenic Escherichia coli (P0A910 22-346): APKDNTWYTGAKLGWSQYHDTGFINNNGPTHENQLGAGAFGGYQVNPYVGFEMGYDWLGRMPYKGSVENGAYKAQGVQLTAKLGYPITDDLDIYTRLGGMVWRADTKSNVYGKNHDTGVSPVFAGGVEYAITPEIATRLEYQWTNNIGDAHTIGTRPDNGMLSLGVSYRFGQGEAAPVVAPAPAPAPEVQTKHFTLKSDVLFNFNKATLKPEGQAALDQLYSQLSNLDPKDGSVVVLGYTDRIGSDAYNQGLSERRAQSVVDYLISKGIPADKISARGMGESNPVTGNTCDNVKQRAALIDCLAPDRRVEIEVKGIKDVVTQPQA

[12] = test system: Secreted proteins from Shigella; type: biochemical
[13] = test system: MxiA and MxiD; type: biochemical, Shigella
[14] = test system: wild-type Shigella flexneri (M90T); type: cell-based
[15] = test system: neutrophil elastase; settings: cited from earlier work
[16] = test system: Cathepsin G; settings: cited from earlier work
[17] = test system: Proteinase 3; settings: cited from earlier work

CC(C)C(NC(=O)[C@@H]1CCCN1C(=O)[C@@H](NC(=O)c1ccc(C(=O)NS(=O)(=O)c2ccc(Br)cc2)cc1)C(C)C)C(=O)C(F)(F)F (stereo partly drawn) [ICI-200355]
cytotoxicity (LDH release) [1]: not cytotoxic | Shigella survival in inhibitor-treated neutrophils versus controls [2]: survived indeed better | neutrophil cell death with noninvasive Shigella control strains after inhibitor pretreatment [3]: no cell death | effect on ingestion or killing of non-virulent bacteria [4]: does not affect | location of non-invasive Shigella strain in neutrophils incubated with inhibitor [5]: remained in the phagosome | location of wild type Shigella in neutrophils pre-incubated with inhibitor ([5]; fixed 30 min post-infection): free in the cytoplasm

COC(=O)CCC(=O)N[C@@H](C)C(=O)N[C@@H](C)C(=O)N1CCC[C@H]1C(=O)N[C@H](C(=O)CCl)C(C)C [MeOSuc-AAPV-cmk, MeOSucAlaAlaProVal-chloromethyl ketone] (MeOSuc-AAPV-CH2Cl)
inhibition of neutrophil elastase activity in hNEGP [6]: completely inhibited | blocking of hNEGP degradation of IpaA, B, C and IcsA [7]: effectively blocked degradation

O=S(=O)(F)Cc1ccccc1 [PMSF, phenylmethylsulfonyl fluoride]
inhibition of neutrophil elastase activity in hNEGP [6]: completely inhibited | blocking of hNEGP degradation of IpaA, B, C and IcsA [7]: blocked the degradation

Cathepsin G
degradation of Shigella effectors [8]: did not degrade

neutrophil elastase
degradation of FliB and FliC [9]: not degraded | degradation of SipA, B, C and HAPs [9]: degraded | degradation of InvG [10]: not degraded | degradation of OmpA in Shigella or E. coli [8]: not degraded | neutrophil elastase concentration at which IcsA was degraded [8]: 1.2 nM | neutrophil elastase concentration that cleaved Shigella virulence proteins significantly [8]: ≥ 1.2 nM | neutrophil elastase concentration that partially digests OmpA [11]: 2 µM | cleavage of proteins not associated with virulence (SepA and OspF) [12]: remained intact | cleavage of virulence factors (e.g. VirA and the Ipas) [12]: cleaved | degradation of MxiA and MxiD [13]: not degraded | neutrophil elastase concentration affecting bacterial viability [14]: > 2,000 nM

B1: SLPI: physiologic inhibitor, human Secretory Leukocyte Protease Inhibitor (protein, UniProt P03973 26-132, looked up)
Antileukoproteinase: SGKSFKAGVCPPKKSAQCLRYKKPECQSDWQCPGKKRCCPDTCGIKCLDPVDTPNPTRRKPGKCPVTYGQCLMLNPPNFCEMDGQCKRDLKCCMGMCGKSCVSPVKA
block of neutrophil elastase [15]: blocks | inhibition of neutrophil elastase activity in hNEGP [6]: completely inhibited | block of Cathepsin G [16]: blocks | blocking of hNEGP degradation of IpaA, B, C and IcsA [7]: effectively blocked degradation | block of Proteinase 3 [17]: not
